Results: patent US20250069697A1, “AN IMPROVED METHOD TO IDENTIFY NUCLEIC ACID SEQUENCES WITHIN A SET OF SEQUENCES OBTAINED BY A SEQUENCER AND A SYSTEM” (priority 2022, published 2025)

What was measured:
Format in all cases: cell-based
Klebsiella pneumoniae = experiment: Growth of the isolate in antibiotic mediums, sample 1; conditions: microorganism isolated in sample 1 (Klebsiella pneumoniae); grown in antibiotic medium
Source text: (§1) Each microorganism was growth in at least two antibiotic mediums, in which the improved method predicted resistance, and at least two antibiotic mediums in which the improved method predicted susceptibility, in order to corroborate the obtained results.

Escherichia coli = experiment: Growth of the isolate in antibiotic mediums, sample 5; conditions: microorganism isolated in sample 5 (Escherichia coli); grown in antibiotic medium
Source text: as §1

[1] = tested on: Staphylococcus epidermidis; experiment: Growth of the isolate in antibiotic mediums, sample 4; conditions: microorganism isolated in sample 4 (Staphylococcus epidermidis); grown in antibiotic medium
Source text: as §1

Enterococcus faecalis = experiment: Growth of the isolate in antibiotic mediums, sample 3; conditions: microorganism isolated in sample 3 (Enterococcus faecalis); grown in antibiotic medium
Source text: as §1

Staphylococcus aureus = experiment: Growth of the isolate in antibiotic mediums, sample 2; conditions: microorganism isolated in sample 2 (Staphylococcus aureus); grown in antibiotic medium
Source text: as §1

Compound | Result (Klebsiella pneumoniae) | Result (Escherichia coli) | Result [1] | Result (Enterococcus faecalis) | Result (Staphylococcus aureus)
NCC[C@H](O)C(=O)N[C@@H]1C[C@H](N)[C@@H](O[C@H]2O[C@H](CN)[C@@H](O)[C@H](O)[C@H]2O)[C@H](O)[C@H]1O[C@H]1O[C@H](CO)[C@@H](O)[C@H](N)[C@H]1O [Amikacin] | Not resistant | Not resistant | Not resistant | Not resistant | Not resistant
CO/N=C(\C(=O)N[C@@H]1C(=O)N2C(C(=O)O)=C(CSc3nc(=O)c(=O)[nH]n3C)CS[C@H]12)c1csc(N)n1 [Ceftriaxone] | Resistant | Resistant | Resistant | – | –
O=C(O)c1cn(C2CC2)c2cc(N3CCNCC3)c(F)cc2c1=O [Ciprofloxacin] | Resistant | Resistant | Resistant | Not resistant | Resistant
COc1cccc(OC)c1C(=O)N[C@@H]1C(=O)N2[C@@H]1SC(C)(C)[C@@H]2C(=O)O [Methicillin] | Not resistant | Not resistant | Not resistant | – | Not resistant
CC[C@H]1OC(=O)[C@H](C)[C@@H](O[C@H]2C[C@@](C)(OC)[C@@H](O)[C@H](C)O2)[C@H](C)[C@@H](O[C@@H]2O[C@H](C)C[C@H](N(C)C)[C@H]2O)[C@](C)(O)C[C@@H](C)CN(C)[C@H](C)[C@@H](O)[C@]1(C)O [azithromycin] | – | – | – | – | Resistant
